These results are taken from BindingDB's records for doi:10.1016/S0960-894X(97)00207-2 (1997).

This assay deals with Beta-2 adrenergic receptor (Cavia porcellus) (UniProt Q8K4Z4). The experiment in a line: Tested for beta-2-adrenergic blocking effect by measuring the ability to inhibit the relaxing effect of epinephrine on the isolated tracheal muscle of guinea pigs.

The term IC50 denotes the concentration that inhibits the measured activity by half. High values mean weaker potency, low ones greater potency.

Chain of Beta-2 adrenergic receptor (Cavia porcellus) (Q8K4Z4 whole entry, looked up): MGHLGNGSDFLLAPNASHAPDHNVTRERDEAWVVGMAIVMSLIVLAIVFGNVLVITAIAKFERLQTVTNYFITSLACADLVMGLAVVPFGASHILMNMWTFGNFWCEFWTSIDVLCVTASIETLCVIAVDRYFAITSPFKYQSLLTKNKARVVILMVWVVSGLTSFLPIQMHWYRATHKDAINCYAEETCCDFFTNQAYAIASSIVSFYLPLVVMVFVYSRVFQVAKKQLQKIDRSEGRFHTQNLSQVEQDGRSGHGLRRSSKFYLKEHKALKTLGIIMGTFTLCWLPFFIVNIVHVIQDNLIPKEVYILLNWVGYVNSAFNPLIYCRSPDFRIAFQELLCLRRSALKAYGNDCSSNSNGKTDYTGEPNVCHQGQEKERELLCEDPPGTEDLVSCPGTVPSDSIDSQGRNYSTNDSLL

For `COCCc1ccc(OC(F)(F)[C@@H](O)CNC(C)C)cc1` [(S)-1,1-Difluoro-3-isopropylamino-1-[4-(2-methoxy-ethyl)-phenoxy]-propan-2-ol], the IC50 was determined as 2150 nM.
